Results on nine compounds are retold here after paper PMC2895357 (Journal of Medicinal Chemistry, 2010).

As usually defined, the EC50 is the concentration giving half of the maximal effect. A higher EC50 goes with weaker potency. The term inhibition denotes the change of the read-out against control, counted positive when it falls.

The structures appear in SMILES notation.

Data set [1] relates to human MRC5 cells. Briefly: Cytotoxicity assay against human MRC5 cells. It is filed as cell-based. The settings on record: human MRC5 cells, three days, Alamar Blue. In general terms: Alamar Blue is a resazurin reagent that responds to reducing activity.
The subject of data set [2] is cultured T. brucei. It is filed as cell-based, Trypanosoma brucei. Particulars: whole-cell T. brucei, three days, Alamar Blue.
Data set [3] is described as follows: Cytotoxicity assay against human MRC5 cells. The settings on record: human, MRC5 cells. It is filed as cell-based.
Data set [4] concerns the target T1, TbGalE (UDP-galactose 4′-epimerase from Trypanosoma brucei) (Trypanosoma brucei, UniProt Q8T8E9).
T1 sequence (Q8T8E9 1-395): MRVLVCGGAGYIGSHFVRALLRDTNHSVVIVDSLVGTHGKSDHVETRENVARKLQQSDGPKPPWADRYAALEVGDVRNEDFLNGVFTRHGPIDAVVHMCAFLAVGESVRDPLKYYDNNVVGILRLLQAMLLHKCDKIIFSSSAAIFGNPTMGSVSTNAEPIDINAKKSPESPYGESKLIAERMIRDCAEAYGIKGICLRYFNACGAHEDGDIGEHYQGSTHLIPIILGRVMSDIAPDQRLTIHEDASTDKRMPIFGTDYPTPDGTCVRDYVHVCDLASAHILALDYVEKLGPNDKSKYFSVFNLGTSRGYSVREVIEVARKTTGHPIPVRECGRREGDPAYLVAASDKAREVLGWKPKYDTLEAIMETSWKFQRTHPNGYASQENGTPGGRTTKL
Briefly: TbGalE inhibition assay. In kind it is biochemical. Particulars: for Hill Slope: TbGalE potency curve.

Data set [5] has as its system Trypanosoma cruzi. Particulars: cited from earlier work.

Take `O=C(O)c1cc(Cl)ccc1-c1ccc(Cl)cc1C(=O)NC1=CC2=C(CC1)c1c(Cl)cc(Cl)cc1C2` [compound 14]: the “MRC5 EC50” value in data set [1] was “demonstrated inhibition of MRC5 growth”. For the same compound, in data set [2], the “Tb EC50” value is on record as “no activity”.

In data set [3], `O=C(O)c1ccccc1-c1ccccc1C(=O)Nc1ccc2c(c1)C(=O)c1ccccc1-2` [compound 5] gave an EC50 at 3 days of over 50 µM.

Regarding `O=C(O)c1ccccc1-c1ccccc1C(=O)Nc1ccc2c(c1)nc(O)c1ccccc12` [compound 1], the EC50 at 3 days in data set [3] was over 50 µM. In addition, the “Hill Slope” value in data set [4] stood at 1.8 ± 0.6.

`O=C(O)c1ccccc1-c1ccccc1C(=O)Nc1ccc2c(c1)Cc1cc(F)ccc1-2` [compound 10]: the concentration for a half-maximal effect (EC50) at 3 days in data set [3] was over 50 µM.

In turn, `CCn1c2ccccc2c2cc(NC(=O)c3ccccc3-c3ccccc3C(=O)O)ccc21` [compound 2] had an EC50 at 3 days in data set [3] of over 50 µM. The “Hill Slope” value in data set [4] is listed as 1.2 ± 0.3.

In data set [3], `O=C(O)c1ccccc1-c1ccccc1C(=O)Nc1cc2c3ccccc3ccc2c2ccccc12` [compound 12] gave an EC50 at 3 days of over 50 µM.

`COC1C(OC(=O)c2ccc(C)[nH]2)C(O)C(Oc2ccc3c(O)c(NC(=O)c4ccc(O)c(CC=C(C)C)c4)c(=O)oc3c2Cl)OC1(C)C` (stereo not drawn) [compound 3, clorobiocin] had a 50% effective concentration (EC50) at 3 days in data set [3] of over 50 µM. Moreover, the “Hill Slope” value in data set [4] worked out at 2.1 ± 0.5. The “inhibition of growth of Trypanosoma cruzi” value in data set [5] is “inhibit the growth”.

For the compound `CO[C@@H]1[C@@H](OC(N)=O)[C@@H](O)[C@H](Oc2ccc3c(O)c(NC(=O)c4ccc(O)c(CC=C(C)C)c4)c(=O)oc3c2C)OC1(C)C` [novobiocin, reference compound], the inhibition at 10 µM in data set [4] (read-out: TbGalE inhibition at 10 μM) was at most 50%. The “inhibition of growth of Trypanosoma cruzi” value in data set [5] is on record as “inhibits the growth”.

`O=C(O)c1cc(Cl)ccc1-c1ccc(Cl)cc1C(=O)Nc1ccc2c(c1)Cc1ccccc1-2` [compound 13]: the EC50 at 3 days in data set [3] was over 50 µM.
